The supplement of paper PMC10011410
± gives the standard deviation of the averaged measurements.

Legend:
Conditions in all cases: 24 h
U-2 OS [1] = experiment: relative cell count vs DMSO (cell painting) (fraction of DMSO control); higher = more cells remaining (less cytotoxic)
Summary of the method: (§1)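 Images taken on an Opera Phenix of U-2 OS cells stained with MitoTracker, concanavalin A, phalloidin, wheat germ agglutinin, Hoechst and SYTO 14 were processed in CellProfiler, with features normalized to DMSO cells on the same plate. The cells, about 1,500 per well in 384-well plates, had been treated by pin tool for 24 h at 37 °C, usually at six 2-fold concentrations from 20 μM to 625 nM. The activity score measures Mahalanobis distance from DMSO wells, and cell count is expressed relative to DMSO wells. Each value averages four replicate plates.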

U-2 OS [2] = experiment: cell viability (CellTiter-Glo) relative to DMSO (% of control); higher = more viable
Method: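 Cell viability of U-2 OS cells by CellTiter-Glo after 24 h compound treatment at 5, 10 and 20 uM (some at 40 and 80 uM), measured in parallel with the glutathione assay, as percent of DMSO control. Five technical replicate plates, averaged.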

U-2 OS [3] = experiment: intracellular GSH:GSSG ratio (calculated); higher = more reduced glutathione pool
Method: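 Intracellular glutathione in U-2 OS cells after 24 h compound treatment at 5, 10 and 20 uM (some at 40 and 80 uM). Total glutathione and GSSG were measured with the GSH/GSSG-Glo kit, and the GSH:GSSG ratio was calculated. Mean of five technical replicate plates.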

U-2 OS [4] = experiment: total intracellular glutathione (GSH + GSSG) relative to DMSO (% of control); higher = more glutathione
Method: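 Total intracellular glutathione (GSH + GSSG) in U-2 OS cells by GSH/GSSG-Glo after 24 h compound treatment at 5, 10 and 20 uM (some at 40 and 80 uM), as percent of DMSO control. Five technical replicate plates, averaged.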

U-2 OS [5] = experiment: cell painting activity score (Mahalanobis distance from DMSO wells); higher = stronger morphological phenotype
Summary of the method: as §1

SMILES	relative cell count (U-2 OS [1]; 0.625 µM)	relative cell count (U-2 OS [1]; 1.25 µM)	relative cell count (U-2 OS [1]; 2.5 µM)	relative cell count (U-2 OS [1]; 5 µM)	relative cell count (U-2 OS [1]; 10 µM)	relative cell count (U-2 OS [1]; 20 µM)	cell viability (U-2 OS [2]; 5 µM)	cell viability (U-2 OS [2]; 10 µM)	cell viability (U-2 OS [2]; 20 µM)	intracellular GSH:GSSG ratio (U-2 OS [3]; 5 µM)	intracellular GSH:GSSG ratio (U-2 OS [3]; 10 µM)	intracellular GSH:GSSG ratio (U-2 OS [3]; 20 µM)	total intracellular glutathione (U-2 OS [4]; 5 µM)	total intracellular glutathione (U-2 OS [4]; 10 µM)	total intracellular glutathione (U-2 OS [4]; 20 µM)	cell painting activity score (U-2 OS [5]; 0.625 µM)	cell painting activity score (U-2 OS [5]; 1.25 µM)	cell painting activity score (U-2 OS [5]; 2.5 µM)	cell painting activity score (U-2 OS [5]; 5 µM)	cell painting activity score (U-2 OS [5]; 10 µM)	cell painting activity score (U-2 OS [5]; 20 µM)	relative cell count (U-2 OS [1]; 40 µM)	relative cell count (U-2 OS [1]; 80 µM)	cell viability (U-2 OS [2]; 40 µM)	cell viability (U-2 OS [2]; 80 µM)	intracellular GSH:GSSG ratio (U-2 OS [3]; 40 µM)	intracellular GSH:GSSG ratio (U-2 OS [3]; 80 µM)	total intracellular glutathione (U-2 OS [4]; 40 µM)	total intracellular glutathione (U-2 OS [4]; 80 µM)	cell painting activity score (U-2 OS [5]; 40 µM)	cell painting activity score (U-2 OS [5]; 80 µM)
C=CC(=O)N1CCN(c2ncnc3c(F)c(-c4c(O)cccc4F)c(Cl)cc23)CC1	0.691	0.719	0.571	0.555	0.531	0.516	91.3 ± 4.4	89.2 ± 6.2	100 ± 6.9	18.9	16.4	11.6	105 ± 3.9	104 ± 3.3	102 ± 3.2	10.3	8.82	11.4	11	11.8	16	–	–	–	–	–	–	–	–	–	–
COc1ccc(/C(Cl)=C(/C=O)c2ccc(OC)cc2)cc1	0.912	0.934	0.941	0.937	0.849	0.395	102 ± 5.1	87.1 ± 4.2	49.8 ± 6	22.2	14.8	3.39	115 ± 4.6	108 ± 6.8	51.8 ± 4.8	6.48	7.76	8.89	10.2	11.7	14.5	0.442	0.0713	44.2 ± 3.5	6.75 ± 0.88	4.6	1.06	49.4 ± 2.6	8.12 ± 0.4	16.2	34
NC1CS(=O)(=O)c2ccccc21 (stereo unspecified)	0.986	1.06	1.06	1.07	1.06	1.04	56.6 ± 6.3	58 ± 7.3	56.7 ± 7.8	3.24	–	–	51.9 ± 5.3	51.6 ± 4.8	45.5 ± 3.2	4.42	4.19	4.72	3.88	3.43	4.56	–	–	–	–	–	–	–	–	–	–
CC1=NN(c2ccc(C(=O)O)cc2)C(=O)/C1=C\c1ccc(-c2cc(C)c(C)cc2[N+](=O)[O-])o1	0.893	0.944	0.894	0.904	0.854	0.787	91.3 ± 6.4	91.1 ± 2.4	96.4 ± 7.8	27.1	21.9	23.1	96 ± 2.5	105 ± 3.6	101 ± 4	5.05	4.06	4.65	6.01	14.4	15	–	–	107 ± 8.1	90.6 ± 5.9	20	18.3	102 ± 7.7	102 ± 5.6	–	–
Oc1cccc(-c2nc(N3CCOCC3)c3oc4ncccc4c3n2)c1	0.904	0.875	0.774	0.734	0.738	0.682	58.4 ± 1.5	56.8 ± 2.5	55.17 ± 0.53	22.3	19.6	20.9	58.8 ± 2.2	60.1 ± 3.8	58.6 ± 2.4	9.68	11.3	11.4	11.6	10	11.3	–	–	–	–	–	–	–	–	–	–
CN(C)C/C=C/C(=O)Nc1ccc(C(=O)Nc2cccc(Nc3ncc(Cl)c(-c4c[nH]c5ccccc45)n3)c2)cc1	0.429	0.45	0.407	0.251	0.152	0.164	34.1 ± 4.7	31 ± 4.3	10.8 ± 2.7	2.92	3.73	6.62	26.7 ± 2.8	20.6 ± 2.5	11.6 ± 2.1	22.6	23.3	23.3	19.2	18.5	29.4	–	–	–	–	–	–	–	–	–	–
c1cc(SSc2ccns2)sn1	0.85	0.816	0.752	0.635	0.137	0.116	94.5 ± 3.6	62.9 ± 10	29 ± 8.2	24.1	6.28	4.87	93.2 ± 6.5	67.1 ± 14	31.5 ± 34	5.35	4.46	6.31	8.63	14.8	17.2	–	–	2.06 ± 0.76	0.459 ± 0.058	0.0649	–	25.6 ± 43	22.5 ± 43	–	–
